What follows are compounds tested against 5'-nucleotidase (Homo sapiens, UniProt P21589) (assay: Inhibition of human recombinant Ecto-5'-nucleotidase).
Sequence of 5'-nucleotidase (P21589 whole entry): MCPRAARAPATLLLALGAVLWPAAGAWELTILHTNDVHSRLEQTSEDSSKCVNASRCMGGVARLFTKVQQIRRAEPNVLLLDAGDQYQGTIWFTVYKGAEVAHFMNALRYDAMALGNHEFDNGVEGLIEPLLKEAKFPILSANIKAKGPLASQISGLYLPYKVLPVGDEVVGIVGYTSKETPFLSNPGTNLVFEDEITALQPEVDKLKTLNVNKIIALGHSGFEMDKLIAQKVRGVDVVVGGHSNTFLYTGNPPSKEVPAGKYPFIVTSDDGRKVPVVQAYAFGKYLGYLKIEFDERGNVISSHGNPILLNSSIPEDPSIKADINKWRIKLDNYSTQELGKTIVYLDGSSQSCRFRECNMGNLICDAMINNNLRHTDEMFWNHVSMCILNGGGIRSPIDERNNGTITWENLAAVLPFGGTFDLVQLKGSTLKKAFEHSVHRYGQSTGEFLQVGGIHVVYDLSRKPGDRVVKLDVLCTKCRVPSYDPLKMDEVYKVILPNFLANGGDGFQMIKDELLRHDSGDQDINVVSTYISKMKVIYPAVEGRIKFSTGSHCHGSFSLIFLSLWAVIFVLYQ

| Structure (SMILES) | IC50 [nM] |
| --- | --- |
| O=S(=O)(c1ccc(-n2nccc2-c2ccc3nnn(-c4ccc5cn[nH]c5c4)c3c2)c(Br)c1)C(F)(F)F | > 0.1 |
| O=S(=O)(c1ccc(-c2nn[nH]c2-c2cc3c(-c4cccc(O)c4)nnc-3co2)cc1Br)C(F)(F)F | > 0.1 |
| N#Cc1ccc(-n2nccc2-c2ccc3nnn(-c4cccc(O)c4)c3c2)cc1 | > 0.1 |
| Cc1nc(-c2ccnn2-c2ccc(C#N)cc2)nc2cc(-c3ccc4cn[nH]c4c3)cnc12 | > 0.1 |
| O=S(=O)(c1ccc(-c2nsnc2-c2cc3c(-c4cccc(O)c4)nnc-3co2)cc1Br)C(F)(F)F | > 0.1 |

Other lines, results leading:

| IC50 [nM] | Structure (SMILES) |
| --- | --- |
| > 0.1 | CC1NC(n2nnc3ccc(-c4ccnn4-c4ccc(C#N)cc4)cc32)CCS1 (stereo not drawn) |
| > 0.1 | N#Cc1ccc(-c2ncsc2-c2cc3c(-c4ccc5cn[nH]c5c4)nnc-3co2)cc1 |
| > 0.1 | O=S(=O)(c1ccc(-n2nccc2-c2ccc3nnn(-c4ccc5cn[nH]c5c4)c3c2)cc1Br)C(F)(F)F |
